Measured values reported in ChEMBL document CHEMBL1201862, “PubChem BioAssay data set” (2004).
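Following 48 hours of exposure in 96-well plates, responses at five concentrations were used to interpolate endpoints linearly. At the GI50, growth is halved.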 The source made the active and inactive calls. Rule as the data show it: active = GI50 up to about 1.1 µM and inactive = higher.

Legend:
Test in all cases: growth of human tumour cells (NCI), 48 h
IGROV-1 = system: IGROV-1
SN12C = system: SN12C
Malme-3M = system: Malme-3M
CCRF-CEM = system: CCRF-CEM
UO-31 = system: UO-31
SF-539 = system: SF-539
TK-10 = system: TK-10
A549 = system: A549
OVCAR-5 = system: OVCAR-5
NCI-H23 = system: NCI-H23
DMS-114 = system: DMS-114
MOLT-4 = system: MOLT-4
COLO 205 = system: COLO 205
K562 = system: K562
HCT-116 = system: HCT-116
ACHN = system: ACHN

Measured: GI50

CCCCCCCCCC1CC(=O)Oc2cccc(O)c21 (centres undefined)
inactive: IGROV-1 20.9 µM | SN12C 6.85 µM | Malme-3M 18.7 µM | CCRF-CEM 27.4 µM | UO-31 19.5 µM | SF-539 4.18 µM | TK-10 36.2 µM | A549 11.5 µM | OVCAR-5 28.3 µM | NCI-H23 3.31 µM | DMS-114 15.7 µM | MOLT-4 26.7 µM | COLO 205 16.4 µM | K562 24 µM | HCT-116 36.2 µM | ACHN 30.3 µM

CCOC(=O)C1Cc2ccc3c4c(ccc(c24)C1)CC(C(=O)OCC)C3
inactive: IGROV-1 > 100 µM | SN12C > 100 µM | Malme-3M > 100 µM | CCRF-CEM > 100 µM | UO-31 > 100 µM | SF-539 > 100 µM | TK-10 > 100 µM | A549 > 100 µM | OVCAR-5 > 100 µM | NCI-H23 > 100 µM | DMS-114 > 100 µM | MOLT-4 > 100 µM | COLO 205 > 100 µM | K562 > 100 µM | HCT-116 > 100 µM | ACHN > 100 µM

CN1/C(=N\c2ccccc2)S/C1=N/c1ccccc1
inactive: IGROV-1 > 100 µM | Malme-3M 23.1 µM | CCRF-CEM 69.3 µM | UO-31 > 100 µM | SF-539 > 100 µM | TK-10 > 100 µM | A549 86.1 µM | OVCAR-5 > 100 µM | NCI-H23 40 µM | DMS-114 23.6 µM | MOLT-4 69.3 µM | COLO 205 61 µM | K562 56.5 µM | HCT-116 47.6 µM | ACHN 70.6 µM

CCOC(=O)C1(C)CCC(C(=O)OC)C1=O (centres undefined)
inactive: IGROV-1 > 100 µM | SN12C 42.9 µM | Malme-3M > 100 µM | CCRF-CEM 21.9 µM | UO-31 > 100 µM | SF-539 > 100 µM | TK-10 > 100 µM | A549 > 100 µM | OVCAR-5 > 100 µM | NCI-H23 > 100 µM | DMS-114 19.8 µM | MOLT-4 87.9 µM | COLO 205 44.1 µM | K562 32.8 µM | HCT-116 57 µM | ACHN > 100 µM

O=[N+]([O-])c1cc(Cl)ccc1S(=O)(=O)c1ccc(Cl)cc1[N+](=O)[O-]
inactive: IGROV-1 15.9 µM | SN12C 15.7 µM | Malme-3M 13.5 µM | CCRF-CEM 24.1 µM | UO-31 17.1 µM | SF-539 18 µM | TK-10 17.6 µM | A549 25.4 µM | OVCAR-5 19.5 µM | NCI-H23 15.2 µM | DMS-114 11.3 µM | MOLT-4 25 µM | COLO 205 17 µM | K562 28.2 µM | HCT-116 15.7 µM | ACHN 16.1 µM

O=C(CO)CC(=O)C(=O)Nc1ccccc1
inactive: IGROV-1 > 100 µM | SN12C > 100 µM | Malme-3M > 100 µM | CCRF-CEM > 100 µM | UO-31 > 100 µM | SF-539 > 100 µM | TK-10 > 100 µM | A549 > 100 µM | OVCAR-5 > 100 µM | NCI-H23 > 100 µM | DMS-114 > 100 µM | MOLT-4 > 100 µM | COLO 205 > 100 µM | K562 > 100 µM | HCT-116 > 100 µM | ACHN > 100 µM

CCCCCCCCCCCCCCCC(=O)OCC1OC(n2cc(F)c(=O)[nH]c2=O)C(NC(=O)OCc2ccccc2)C(O)C1O (centres undefined)
inactive: IGROV-1 20.9 µM | SN12C 19.9 µM | Malme-3M 2.79 µM | CCRF-CEM 11 µM | UO-31 19.5 µM | SF-539 16.4 µM | TK-10 19.6 µM | A549 18.9 µM | OVCAR-5 19.1 µM | NCI-H23 18.5 µM | DMS-114 14 µM | MOLT-4 18.2 µM | COLO 205 17.4 µM | K562 14.5 µM | HCT-116 16.6 µM | ACHN 34.1 µM

COc1ccc(/C=C/CO)cc1OC
inactive: IGROV-1 > 100 µM | SN12C > 100 µM | Malme-3M > 100 µM | UO-31 > 100 µM | SF-539 > 100 µM | TK-10 > 100 µM | A549 > 100 µM | OVCAR-5 > 100 µM | NCI-H23 > 100 µM | DMS-114 > 100 µM | MOLT-4 > 100 µM | COLO 205 > 100 µM | K562 > 100 µM | ACHN > 100 µM

C=CCCC(O)c1cc(C)c(O)c(C)c1 (centres undefined)
inactive: IGROV-1 > 100 µM | SN12C > 100 µM | Malme-3M > 100 µM | CCRF-CEM > 100 µM | UO-31 > 100 µM | SF-539 > 100 µM | TK-10 > 100 µM | A549 > 100 µM | OVCAR-5 > 100 µM | NCI-H23 > 100 µM | DMS-114 > 100 µM | MOLT-4 > 100 µM | COLO 205 > 100 µM | K562 > 100 µM | ACHN > 100 µM

NCCOCCOCC(=O)O
inactive: IGROV-1 > 100 µM | SN12C > 100 µM | Malme-3M > 100 µM | UO-31 > 100 µM | SF-539 > 100 µM | TK-10 > 100 µM | A549 > 100 µM | OVCAR-5 > 100 µM | NCI-H23 > 100 µM | DMS-114 > 100 µM | MOLT-4 > 100 µM | K562 > 100 µM | HCT-116 > 100 µM | ACHN > 100 µM

O=C1CCC(O)=C1O
inactive: IGROV-1 > 100 µM | SN12C > 100 µM | Malme-3M > 100 µM | CCRF-CEM > 100 µM | SF-539 > 100 µM | TK-10 > 100 µM | A549 > 100 µM | OVCAR-5 > 100 µM | NCI-H23 > 100 µM | DMS-114 > 100 µM | MOLT-4 > 100 µM | COLO 205 > 100 µM | K562 > 100 µM | HCT-116 > 100 µM | ACHN > 100 µM

O=C(CCC(=O)Nc1ccc(Cl)c(Cl)c1)CC(=O)c1ccc(F)cc1
inactive: IGROV-1 > 100 µM | SN12C > 100 µM | Malme-3M > 100 µM | CCRF-CEM > 100 µM | UO-31 > 100 µM | SF-539 > 100 µM | A549 > 100 µM | OVCAR-5 > 100 µM | NCI-H23 > 100 µM | DMS-114 > 100 µM | MOLT-4 > 100 µM | COLO 205 > 100 µM | K562 > 100 µM | HCT-116 > 100 µM | ACHN > 100 µM

C[C@]12CC=CC(=O)[C@@]1(C)CCC(=O)C2
inactive: IGROV-1 > 100 µM | SN12C > 100 µM | Malme-3M > 100 µM | CCRF-CEM > 100 µM | UO-31 > 100 µM | SF-539 > 100 µM | TK-10 > 100 µM | A549 > 100 µM | OVCAR-5 > 100 µM | NCI-H23 > 100 µM | DMS-114 > 100 µM | MOLT-4 > 100 µM | K562 > 100 µM | HCT-116 > 100 µM | ACHN > 100 µM
